We go through 3 molecules from US8795997B2 (priority 2009, dated 2014).

Read-outs that look alike come from different tables or passages of the source.

What all share (format): cell-based
The subject of experiment [1] is baker's yeast (Saccharomyces cerevisiae). How it is done:
The pH of the sugarcane bagass and spruce hydrolysates were adjusted to 5.5 with a 5 M solution of sodium hydroxide. The conditioning of each hydrolysate was performed in eight 100-mL glass vessels equipped with magnetic stirrer bars. 26 mL hydrolysate was added to all vessels, and the vessels were placed on a magnetic stirrer plate (IKA-Werke, Staufen, Germany). Sodium dithionite (chemical grade; >87%, Merck, Darmstadt, Germany) was added to hydrolysates in the concentrations 5 and 10 mM. Additions of sodium sulphite to 5 and 10 mM were also performed. The additions were made at room temperature (23° C.) and the samples were kept for 10 min with stirring. The experiments were performed in duplicates.
The efficiency of the additions of the reducing agents was compared with alkali detoxification.
Ethanol measurements were performed by using an enzymatic kit (Ethanol UV-method, Boehringer Mannheim GmbH, Mannheim, Germany). Fermentation experiments were performed to evaluate the effectiveness of the additions and treatments. For comparison, untreated hydrolysates were included in the fermentation experiments as well as reference fermentations of sugar-based medium with an amount of fermentable sugars (i.e. glucose and mannose) corresponding to that in the hydrolysate samples. The fermentations were carried out using baker's yeast (Saccharomyces cerevisiae) (Jastbolaget AB, Rotebro, Sweden). The yeast inoculum was prepared in 750-mL cotton-plugged shake flasks with 300 mL YEPD medium (2% yeast extract, 1% peptone, 2% D-glucose). The flasks were inoculated and incubated with agitation at 30° C. for approximately 12 h. The cells were harvested in the late exponential growth phase by centrifugation (Hermla Z206A, Hermle Labortechnik GmbH, Wehingen, Germany) at 1,500 g for 5 min. The cells were resuspended in an appropriate amount of sterile water to achieve an inoculum consisting of 2.0 g/L (cell dry weight) in all fermentation vessels. The fermentation was carried out in 14 25-mL glass flasks equipped with magnets for stirring and sealed with rubber plugs pierced with cannulas for letting out carbon dioxide. The hydrolysate samples (23.75 mL), or alternatively the sugar solution for reference fermentations, were added to the fermentation flasks along with 0.5 mL of a nutrient solution (150 g/L yeast extract, 75 g/L (NH4)2HPO4, 3.75 g/L MgSO4.7H2O, 238.2 g/L NaH2PO4.H2O), and 0.75 mL of yeast inoculum. The flasks were incubated at 30° C. in a water bath with magnetic stirring (IKA-Werke). Samples for measurement of sugars and ethanol were withdrawn during the fermentation. The glucose levels during the fermentation were estimated by using a glucometer (Glucometer Elite XL, Bayer AG, Leverkusen, Germany).

The test system of experiment [2] is yeast Saccharomyces cerevisiae. In words: Simultaneous saccharification and fermentation (SSF) of sugarcane bagass slurry. The conditions noted are these: for Fermentability: 7.5 and 10 mM, 13 and 45 hours (FIG. 9). How it is done: The pretreatment of sugarcane bagass for SSF experiments was performed in the Swedish cellulosic ethanol pilot plant (operated by SEKAB E-Technology, Örnskoldsvik, Sweden). Sugarcane bagass was treated in a continuous mode in a 30-liter reactor at a temperature of 198-199° C. and with a residence time of 13-14 min. The feed rate was 24 kg (dry weight) per h and the bagass was impregnated with sulfur dioxide (0.5 kg/h). The pH after pretreatment was 2.7. The dry matter content was 19%. The pretreated material was cooled and stored at 4° C. until further use.
SSF experiments were also performed with sugarcane bagass slurries. The sugarcane bagass slurries were prepared as described in Example 1. Reducing agents, dithionite and sulphite, respectively, were added 10 min prior to inoculum in concentrations of studied 7.5 and 10 mM. The ethanol concentration was measured after 13 and 45 hours according to the protocol described in Example 1.

Experiment [3] relates to yeast Saccharomyces cerevisiae. In words: Simultaneous saccharification and fermentation (SSF) of spruce slurry. The conditions noted are these: for Final ethanol concentration: after 70 hours. The protocol:
Addition of sodium dithionite and sodium sulphite was tested in an SSF process. Spruce was pretreated as described in Example 1 above. The spruce slurry was adjusted to pH 5.4 with a 5 M solution of sodium hydroxide. Ten 250-mL shake flasks equipped with magnetic stirrer bars were filled with 100 g of spruce slurry. Sodium dithionite or sodium sulphite was added to the slurries to final concentrations of 7.5 and 10 mM. The additions were performed at room temperature (23° C.) for 10 min with stirring. Duplicate experiments were made. Cellulase and cellobiase preparations were prepared and added to the slurry using the enzyme activity loadings as described in Example 1 above. Further, the yeast inoculum was prepared according to Example 1 above. Inoculums were added to give a start concentration of 2.0 g/L (cell dry weight) in every flask. No source of extra nutrients was added. For comparison, two flasks with spruce slurry to which no reducing agents had been added were included in the experiment. The flasks were incubated at 35° C. for 69 h in a water bath with magnetic stirring. The flasks were sealed with Parafilm (Pechiney Plastic Packaging Company, Chicago, Ill., USA) to prevent evaporation of ethanol. Samples were withdrawn for analysis of ethanol according to Examplel above.
A spruce slurry was prepared according to Examples 1 and 2 above. Different flasks were filled with 100 g each of the spruce slurry and were subjected to a SSF process according to Example 2 above, but with different amounts of dithionite and sulphite added. The produced ethanol was monitored during the fermentation. […]

Where [4] appears, read: spruce hydrolysate, 10 mM (FIGS. 1 and 2).
[5] abbreviates: spruce hydrolysate, 14 h fermentation, 10 mM.
[6] abbreviates: 6 h fermentation, NH4OH detoxification, pH 9, 55° C., 3 h.
Setting [7] is: spruce hydrolysate, 14 h fermentation, NH4OH detoxification, pH 9, 55° C., 3 h.

As for `O=S([O-])S(=O)[O-].[Na+].[Na+]` [Dithionite, Sodium dithionite], in experiment [1] (10 mM (FIG. 4)), the “Ethanol concentration compared with other additions” value is listed as “higher ethanol concentration compared to addition of 5 mM dithionite or 10 mM sulphite”. In addition, the Balanced ethanol yield is on record as 0.28 g EtOH/Σglucose & mannose prior to detoxification in experiment [1] (6 h fermentation, 10 mM) and 0.34 g EtOH/Σglucose & mannose prior to detoxification in experiment [1] (setting [5]). Besides, the Productivity in experiment [1] (6 h fermentation, 10 mM) is listed as 3.9 g EtOH×L^−1×h^−1; in experiment [1] (setting [5]) it was 2.5 g EtOH×L^−1×h^−1. In addition, the “Yield (ethanol)” value in experiment [1] (6 h fermentation, 10 mM) was 0.34 g EtOH/g consumed glucose & mannose; in experiment [1] (setting [5]) it was 0.37 g EtOH/g consumed glucose & mannose. In addition, the “Glucose consumption rates and amounts of ethanol produced” value in experiment [1] (spruce hydrolysate, 5 mM (FIGS. 1 and 2)) is on record as “substantial improvement compared to untreated hydrolysate”; in experiment [1] (setting [4]) it was “comparable to those of the reference fermentation”. In addition, the Fermentability result in experiment [2] was “improved fermentability”. In addition, the “Ethanol production, dithionite compared with sulphite” value in experiment [2] (10 and 7.5 mM (FIG. 9)) is on record as “better than any of the sulphite concentrations”. The Final ethanol concentration entry is “about 10 g/L” in experiment [3] (2.5 mM); 35 to 40 g/L in experiment [3] (5 mM); “highest ethanol production” in experiment [3] (7.5 mM); “highest ethanol production” in experiment [3] (10 mM); “highest ethanol production” in experiment [3] (15 mM); 35 to 40 g/L in experiment [3] (20 mM). Further, the Final ethanol concentration result in experiment [3] (30 mM) was “about 30 g/L”. In experiment [3] (7.5 mM, compared with 10 mM dithionite (FIG. 5)), the “Ethanol levels and ethanol formation” value is recorded as “reached the same high levels of ethanol, but ethanol formation was slightly slower”. The “Time after which ethanol formation leveled off” value in experiment [3] (10 mM (FIG. 5)) is reported as “about 45 h”. Besides, the “Improvement of ethanol production, dithionite compared with sulphite” value in experiment [3] (10 mM (FIG. 8)) was “better improvement than the addition of sulphite”. Besides, the “Ethanol production compared to untreated” value in experiment [3] (7.5 and 10 mM (FIG. 5)) is “higher ethanol production compared to the untreated hydrolysate”.
As for `N` [NH4OH, ammonium hydroxide, reference compound], in experiment [1] (setting [6]), the Balanced ethanol yield is 0.25 g EtOH/Σglucose & mannose prior to detoxification, the Productivity came to 3.5 g EtOH×L^−1×h^−1 and the “Yield (ethanol)” value was 0.34 g EtOH/g consumed glucose & mannose. In addition, in experiment [1] (setting [7]), the Balanced ethanol yield is 0.37 g EtOH/Σglucose & mannose prior to detoxification, the Productivity came out at 2.8 g EtOH×L^−1×h^−1 and the “Yield (ethanol)” value is recorded as 0.43 g EtOH/g consumed glucose & mannose.
Take `O=S([O-])[O-].[Na+].[Na+]` [Sulphite, sodium sulphite]: the Balanced ethanol yield in experiment [1] (6 h fermentation, 10 mM) is 0.21 g EtOH/Σglucose & mannose prior to detoxification; in experiment [1] (setting [5]) it was 0.16 g EtOH/Σglucose & mannose prior to detoxification. Besides, the Productivity in experiment [1] (6 h fermentation, 10 mM) is reported as 2.9 g EtOH×L^−1×h^−1; in experiment [1] (setting [5]), 1.2 g EtOH×L^−1×h^−1. Moreover, the “Yield (ethanol)” value in experiment [1] (6 h fermentation, 10 mM) is given as 0.32 g EtOH/g consumed glucose & mannose; in experiment [1] (setting [5]), 0.29 g EtOH/g consumed glucose & mannose. For the same molecule, in experiment [1] (setting [4]), the “Glucose consumption rates and amounts of ethanol produced” value is “substantial improvement compared to untreated hydrolysate”. The Fermentability entry in experiment [2] is given as “improved fermentability”. Moreover, the Final ethanol concentration entry was “did not result in as high final ethanol concentrations” in experiment [3] (2.5 mM); “did not result in as high final ethanol concentrations” in experiment [3] (5 mM); 35 to 40 g/L in experiment [3] (7.5 mM); 35 to 40 g/L in experiment [3] (10 mM); “about 40 g/L” in experiment [3] (15 mM); “about 40 g/L” in experiment [3] (20 mM). Moreover, in experiment [3] (30 mM), the Final ethanol concentration result is given as “about 40 g/L”. Further, the “Ethanol production compared to untreated” value in experiment [3] (7.5 and 10 mM (FIG. 5)) was “higher ethanol production compared to the untreated hydrolysate”. In experiment [3] (7.5 and 10 mM (FIG. 5)), the “Ethanol production compared with dithionite samples” value was “lower ethanol production compared to the samples to which dithionite was added”. The “Time after which ethanol formation leveled off” value in experiment [3] (7.5 and 10 mM (FIG. 5)) is on record as 20 h.
